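A five-concentration, 48-hour dose response in 96-well plates underlies each endpoint, interpolated linearly between surrounding concentrations. GI50 marks 50% less growth.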 The source made the active and inactive calls. Rule as the data show it: active = GI50 up to about 1.1 µM and inactive = higher.
Key:
Assay in all cases: NCI-60 cell line screen, 48 h
HL-60 = tested on: HL-60
OVCAR-8 = tested on: OVCAR-8
MDA-N = tested on: MDA-N
NCI-H460 = tested on: NCI-H460
SNB-19 = tested on: SNB-19
EKVX = tested on: EKVX
SW-620 = tested on: SW-620
RPMI-8226 = tested on: RPMI-8226
K562 = tested on: K562
DU-145 = tested on: DU-145
NCI-H23 = tested on: NCI-H23
NCI-H226 = tested on: NCI-H226
SK-MEL-28 = tested on: SK-MEL-28
NCI/ADR-RES = tested on: NCI/ADR-RES
M14 = tested on: M14
SK-MEL-2 = tested on: SK-MEL-2
T47D = tested on: T47D
RXF 393 = tested on: RXF 393
UO-31 = tested on: UO-31
HOP-62 = tested on: HOP-62
HT-29 = tested on: HT-29
HCT-15 = tested on: HCT-15
MOLT-4 = tested on: MOLT-4
MDA-MB-435 = tested on: MDA-MB-435
OVCAR-3 = tested on: OVCAR-3
MCF7 = tested on: MCF7
HCC 2998 = tested on: HCC 2998
KM12 = tested on: KM12
A498 = tested on: A498
786-0 = tested on: 786-0
SK-OV-3 = tested on: SK-OV-3
HOP-92 = tested on: HOP-92
ACHN = tested on: ACHN
OVCAR-5 = tested on: OVCAR-5
CCRF-CEM = tested on: CCRF-CEM
COLO 205 = tested on: COLO 205
NCI-H522 = tested on: NCI-H522
U-251 = tested on: U-251
MDA-MB-231 = tested on: MDA-MB-231
A549 = tested on: A549
UACC-257 = tested on: UACC-257
Malme-3M = tested on: Malme-3M
BT-549 = tested on: BT-549
SR = tested on: SR
LOX IMVI = tested on: LOX IMVI
UACC-62 = tested on: UACC-62
SN12C = tested on: SN12C
CAKI-1 = tested on: CAKI-1
SF-268 = tested on: SF-268
Hs-578T = tested on: Hs-578T
SF-295 = tested on: SF-295
SK-MEL-5 = tested on: SK-MEL-5
TK-10 = tested on: TK-10
OVCAR-4 = tested on: OVCAR-4
HCT-116 = tested on: HCT-116
SF-539 = tested on: SF-539
IGROV-1 = tested on: IGROV-1
PC-3 = tested on: PC-3
SNB-75 = tested on: SNB-75

COc1cc(/C=C2/SC(c3ccccc3)N(c3cccc(Cl)c3)C2=O)cc(OC)c1OC (centres undefined)
GI50 (HL-60): 29.8 µM (inactive)
GI50 (OVCAR-8): 23.1 µM (inactive)
GI50 (MDA-N): 16.3 µM (inactive)
GI50 (NCI-H460): 32.1 µM (inactive)
GI50 (SNB-19): 27.9 µM (inactive)
GI50 (EKVX): 41.3 µM (inactive)
GI50 (SW-620): 28.6 µM (inactive)
GI50 (RPMI-8226): 16.2 µM (inactive)
GI50 (K562): 13.5 µM (inactive)
GI50 (DU-145): 39.1 µM (inactive)
GI50 (NCI-H23): 22.9 µM (inactive)
GI50 (NCI-H226): 42.7 µM (inactive)
GI50 (SK-MEL-28): 26.2 µM (inactive)
GI50 (NCI/ADR-RES): 17.1 µM (inactive)
GI50 (M14): 19.8 µM (inactive)
GI50 (SK-MEL-2): 59.3 µM (inactive)
GI50 (T47D): 25.5 µM (inactive)
GI50 (RXF 393): 15.9 µM (inactive)
GI50 (UO-31): 24.8 µM (inactive)
GI50 (HOP-62): 39.8 µM (inactive)
GI50 (HT-29): 25.6 µM (inactive)
GI50 (HCT-15): 20.7 µM
GI50 (MOLT-4): 24.7 µM (inactive)
GI50 (MDA-MB-435): 17.6 µM (inactive)
GI50 (OVCAR-3): 40.1 µM (inactive)
GI50 (MCF7): 24 µM (inactive)
GI50 (HCC 2998): 36.3 µM (inactive)
GI50 (KM12): 32.4 µM (inactive)
GI50 (A498): 81.7 µM (inactive)
GI50 (786-0): 16.8 µM (inactive)
GI50 (SK-OV-3): 20.9 µM (inactive)
GI50 (HOP-92): 23.6 µM (inactive)
GI50 (ACHN): 19.3 µM (inactive)
GI50 (OVCAR-5): 29.9 µM (inactive)
GI50 (CCRF-CEM): 11.3 µM (inactive)
GI50 (COLO 205): 56.1 µM (inactive)
GI50 (NCI-H522): 11.5 µM (inactive)
GI50 (U-251): 27.6 µM (inactive)
GI50 (MDA-MB-231): 67 µM (inactive)
GI50 (A549): 54.5 µM (inactive)
GI50 (UACC-257): 40.1 µM (inactive)
GI50 (Malme-3M): 24.6 µM (inactive)
GI50 (BT-549): 24.1 µM (inactive)
GI50 (SR): 10.8 µM (inactive)
GI50 (LOX IMVI): 12.1 µM (inactive)
GI50 (UACC-62): 18.4 µM (inactive)
GI50 (SN12C): 17.5 µM (inactive)
GI50 (CAKI-1): 35.9 µM (inactive)
GI50 (SF-268): 21 µM (inactive)
GI50 (Hs-578T): 47 µM (inactive)
GI50 (SF-295): 8.22 µM (inactive)
GI50 (SK-MEL-5): 29.5 µM (inactive)
GI50 (TK-10): 33.7 µM (inactive)
GI50 (OVCAR-4): 41 µM (inactive)
GI50 (HCT-116): 15.3 µM (inactive)
GI50 (SF-539): 22.5 µM (inactive)

CN(C(=O)c1ccc(Cl)s1)C(=S)N(C)C(=O)c1ccc(Cl)s1
GI50 (HL-60): > 10 µM (inactive)
GI50 (OVCAR-8): > 10 µM (inactive)
GI50 (IGROV-1): > 10 µM (inactive)
GI50 (MDA-N): > 10 µM (inactive)
GI50 (NCI-H460): > 10 µM (inactive)
GI50 (SNB-19): > 10 µM (inactive)
GI50 (EKVX): > 10 µM (inactive)
GI50 (SW-620): > 10 µM (inactive)
GI50 (RPMI-8226): > 10 µM (inactive)
GI50 (K562): > 10 µM (inactive)
GI50 (DU-145): > 10 µM (inactive)
GI50 (NCI-H23): > 10 µM (inactive)
GI50 (NCI-H226): > 10 µM (inactive)
GI50 (SK-MEL-28): > 10 µM (inactive)
GI50 (NCI/ADR-RES): > 10 µM (inactive)
GI50 (M14): > 10 µM (inactive)
GI50 (SK-MEL-2): > 10 µM (inactive)
GI50 (T47D): > 10 µM (inactive)
GI50 (RXF 393): > 10 µM (inactive)
GI50 (UO-31): > 10 µM (inactive)
GI50 (HOP-62): > 10 µM (inactive)
GI50 (HT-29): > 10 µM (inactive)
GI50 (HCT-15): > 10 µM
GI50 (MOLT-4): > 10 µM (inactive)
GI50 (OVCAR-3): > 10 µM (inactive)
GI50 (MCF7): > 10 µM (inactive)
GI50 (HCC 2998): > 10 µM (inactive)
GI50 (KM12): > 10 µM (inactive)
GI50 (A498): > 10 µM (inactive)
GI50 (786-0): > 10 µM (inactive)
GI50 (SK-OV-3): > 10 µM (inactive)
GI50 (HOP-92): > 10 µM (inactive)
GI50 (ACHN): > 10 µM (inactive)
GI50 (OVCAR-5): > 10 µM (inactive)
GI50 (CCRF-CEM): > 10 µM (inactive)
GI50 (COLO 205): > 10 µM (inactive)
GI50 (NCI-H522): > 10 µM (inactive)
GI50 (U-251): > 10 µM (inactive)
GI50 (MDA-MB-231): > 10 µM (inactive)
GI50 (A549): > 10 µM (inactive)
GI50 (UACC-257): > 10 µM (inactive)
GI50 (Malme-3M): > 10 µM (inactive)
GI50 (BT-549): > 10 µM (inactive)
GI50 (SR): > 10 µM (inactive)
GI50 (PC-3): > 10 µM (inactive)
GI50 (LOX IMVI): > 10 µM (inactive)
GI50 (UACC-62): > 10 µM (inactive)
GI50 (SN12C): > 10 µM (inactive)
GI50 (CAKI-1): > 10 µM (inactive)
GI50 (SF-268): > 10 µM (inactive)
GI50 (Hs-578T): > 10 µM (inactive)
GI50 (SF-295): > 10 µM (inactive)
GI50 (SK-MEL-5): > 10 µM (inactive)
GI50 (TK-10): > 10 µM (inactive)
GI50 (OVCAR-4): > 10 µM (inactive)
GI50 (SNB-75): > 10 µM (inactive)
GI50 (HCT-116): > 10 µM (inactive)
GI50 (SF-539): > 10 µM (inactive)

— ChEMBL document CHEMBL1201862, “PubChem BioAssay data set” (2004)
